In PMC4527730, “A Pan-GTPase Inhibitor as a Molecular Probe” (PLoS ONE, 2015):

Tests used:
Assay in all cases: Multiplex bead-based flow cytometry dose-response of fluorescent guanine nucleotide binding
H-Ras = H-Ras (Homo sapiens, UniProt P01112); conditions: read-out: EC50 H-Ras; BODIPY-FL GTP binding; 2 h at 4°C
Description: (§1) Briefly, individual GST-GTPases were separately attached to glutathione microsphere beads that were labeled with varying intensity of red fluorescent dye, and subsequently combined. The buffer contains 30 mM HEPES (pH 7.2), 150 mM KCl, 20 mM NaCl, 0.1% BSA, 1 mM DTT, 1 mM EDTA and 0.1% NP-40. […] To study whether the compounds are slow binders, BODIPY^- FL GTP was added either immediately or 2 h after compound addition. […] The curves were fitted to the sigmoidal dose-response equation using GraphPad Prism. Percent response was calculated as the ratio of (sample MCF–negative control MCF) / (positive control MCF–negative control MCF).

Cdc42 Q61L = Cdc42 Q61L (Homo sapiens, UniProt P60953, Q61L); conditions: read-out: EC50 Cdc42 Q61L; BODIPY-FL GTP binding; 2 h at 4°C
Description: as §1

Rab7 = Rab7 (Canis lupus familiaris, UniProt P18067); conditions: read-out: EC50 Rab7; BODIPY-FL GTP binding; 2 h at 4°C
Rab7, sequence (P18067 2-207 limits assumed): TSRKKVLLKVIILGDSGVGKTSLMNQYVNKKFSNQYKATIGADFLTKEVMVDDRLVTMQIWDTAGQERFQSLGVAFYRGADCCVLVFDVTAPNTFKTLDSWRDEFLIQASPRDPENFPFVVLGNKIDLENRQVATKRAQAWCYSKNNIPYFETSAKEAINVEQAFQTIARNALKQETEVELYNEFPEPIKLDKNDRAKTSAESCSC
Description: as §1

H-Ras G12V = H-Ras G12V (Homo sapiens, UniProt P01112, G12V); conditions: read-out: EC50 H-Ras G12V; BODIPY-FL GTP binding; 2 h at 4°C
H-Ras G12V, sequence (P01112 whole entry G12V): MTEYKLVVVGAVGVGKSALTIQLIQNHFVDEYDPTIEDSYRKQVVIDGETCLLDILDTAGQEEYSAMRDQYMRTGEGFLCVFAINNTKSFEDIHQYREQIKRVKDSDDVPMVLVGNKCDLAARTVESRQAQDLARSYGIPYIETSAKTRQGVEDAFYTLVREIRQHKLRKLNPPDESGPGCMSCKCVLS
Description: as §1

Cdc42 = Cdc42 (Homo sapiens, UniProt P60953); conditions: read-out: EC50 Cdc42; BODIPY-FL GTP binding; 2 h at 4°C
Cdc42, sequence (P60953 whole entry): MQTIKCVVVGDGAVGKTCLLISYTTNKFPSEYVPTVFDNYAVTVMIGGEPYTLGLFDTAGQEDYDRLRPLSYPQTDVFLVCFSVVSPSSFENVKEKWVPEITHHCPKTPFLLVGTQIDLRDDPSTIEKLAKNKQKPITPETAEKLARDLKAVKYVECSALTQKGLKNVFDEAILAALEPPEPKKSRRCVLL
Description: as §1

RhoA = RhoA (Homo sapiens, UniProt P61586); conditions: read-out: EC50 RhoA; BODIPY-FL GTP binding; 2 h at 4°C; 1 mM MgCl2
RhoA, sequence (P61586 whole entry): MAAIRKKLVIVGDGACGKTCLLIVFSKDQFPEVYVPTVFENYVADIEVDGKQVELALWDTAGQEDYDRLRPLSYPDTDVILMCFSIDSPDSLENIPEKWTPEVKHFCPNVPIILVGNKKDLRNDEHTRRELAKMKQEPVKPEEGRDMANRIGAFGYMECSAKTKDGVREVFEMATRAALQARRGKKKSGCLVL

Rac1 = Rac1 (Homo sapiens, UniProt P63000); conditions: read-out: EC50 Rac1; BODIPY-FL GTP binding; 2 h at 4°C; 1 mM MgCl2
Description: Briefly, individual GST-GTPases were separately attached to glutathione microsphere beads that were labeled with varying intensity of red fluorescent dye, and subsequently combined. The buffer contains 30 mM HEPES (pH 7.2), 150 mM KCl, 20 mM NaCl, 0.1% BSA, 1 mM DTT, 1 mM EDTA and 0.1% NP-40. For Rho A and Rac1, 1 mM EDTA was replaced with 1 mM MgCl2 to stabilize the protein. […] To study whether the compounds are slow binders, BODIPY^- FL GTP was added either immediately or 2 h after compound addition. […] The curves were fitted to the sigmoidal dose-response equation using GraphPad Prism. Percent response was calculated as the ratio of (sample MCF–negative control MCF) / (positive control MCF–negative control MCF).

Rac1 Q61L = Rac1 Q61L (Homo sapiens, UniProt P63000, Q61L); conditions: read-out: EC50 Rac1 Q61L; BODIPY-FL GTP binding; 2 h at 4°C

H-Ras, sequence (P01112 whole entry): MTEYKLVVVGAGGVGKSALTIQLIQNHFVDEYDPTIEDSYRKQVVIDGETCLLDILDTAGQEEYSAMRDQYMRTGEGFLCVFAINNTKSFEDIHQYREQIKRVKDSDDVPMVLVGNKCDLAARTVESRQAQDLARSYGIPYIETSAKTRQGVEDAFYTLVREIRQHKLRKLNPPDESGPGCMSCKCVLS
Cdc42 Q61L, sequence (P60953 whole entry Q61L): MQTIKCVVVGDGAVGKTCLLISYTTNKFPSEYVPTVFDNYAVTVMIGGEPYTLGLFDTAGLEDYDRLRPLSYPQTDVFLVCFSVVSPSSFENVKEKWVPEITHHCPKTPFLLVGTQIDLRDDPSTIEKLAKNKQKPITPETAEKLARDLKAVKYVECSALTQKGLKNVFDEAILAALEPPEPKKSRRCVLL

Structure (SMILES): CCOC(=O)c1c(NC(=O)Nc2ccc(F)cc2)sc2c1CCN(C)C2 [CID 2810966]
- EC50 (H-Ras): > 1000 µM
- EC50 (Cdc42 Q61L): > 1000 µM
- EC50 (Rab7): > 1000 µM
- EC50 (H-Ras G12V): > 1000 µM
- EC50 (Cdc42): > 1000 µM

Structure (SMILES): Cc1ccc(Nc2nc3sc4c(c3c(=O)o2)CCN(C)C4)cc1 [CID 46916264]
- EC50 (H-Ras): > 1000 µM
- EC50 (Cdc42 Q61L): > 1000 µM
- EC50 (Rab7): > 1000 µM
- EC50 (H-Ras G12V): > 1000 µM
- EC50 (Cdc42): > 1000 µM

Structure (SMILES): CC1(C)Cc2c(sc(NC(=S)NC(=O)c3cccs3)c2C(=O)O)CO1 [CID 53377398]
- EC50 (H-Ras): 0.035 µM
- EC50 (RhoA): 0.033 µM
- EC50 (Rab7): 0.025 µM
- EC50 (H-Ras G12V): 0.024 µM
- EC50 (Rac1): 0.029 µM
- EC50 (Rac1 Q61L): 0.027 µM

Structure (SMILES): Cc1ccc(NC(=O)Nc2sc3c(c2C(=O)O)CCN(C)C3)cc1 [CID 46916259]
- EC50 (H-Ras): 30.2 µM
- EC50 (Cdc42 Q61L): 28 µM
- EC50 (Rab7): 49.3 µM
- EC50 (H-Ras G12V): 32.2 µM
- EC50 (Cdc42): 26.2 µM

Structure (SMILES): CN1CCc2c(sc(NC(=O)Nc3ccc(F)cc3)c2C(=O)O)C1 [CID 46916260]
- EC50 (H-Ras): > 1000 µM
- EC50 (Cdc42 Q61L): > 1000 µM
- EC50 (Rab7): > 1000 µM
- EC50 (H-Ras G12V): > 1000 µM
- EC50 (Cdc42): > 1000 µM

Structure (SMILES): CC1(C)Cc2c(sc(NC(=S)NC(=O)c3ccco3)c2C(=O)O)CO1 [CID 53377402]
- EC50 (H-Ras): 0.079 µM
- EC50 (Cdc42 Q61L): 0.33 µM
- EC50 (RhoA): 0.092 µM
- EC50 (Rab7): 0.074 µM
- EC50 (H-Ras G12V): 0.065 µM
- EC50 (Rac1): 0.059 µM
- EC50 (Rac1 Q61L): 0.059 µM
- EC50 (Cdc42): 16.2 µM

Structure (SMILES): CCOC(=O)c1c(NC(=S)Nc2ccccc2)sc2c1CC(C)(C)OC2 [CID 1097649]
- EC50 (H-Ras): > 1000 µM
- EC50 (Cdc42 Q61L): > 1000 µM
- EC50 (Rab7): > 1000 µM
- EC50 (H-Ras G12V): > 1000 µM
- EC50 (Cdc42): > 1000 µM

Structure (SMILES): CCC1(C)Cc2c(sc(NC(=S)NC(=O)c3ccccc3)c2C(=O)O)CO1 (stereo not shown) [CID 53377401]
- EC50 (H-Ras): 0.028 ± 0.011 µM
- EC50 (Cdc42 Q61L): 0.077 ± 0.087 µM
- EC50 (RhoA): 0.046 µM
- EC50 (Rab7): 0.032 ± 0.0073 µM
- EC50 (H-Ras G12V): 0.035 µM
- EC50 (Rac1): 0.053 µM
- EC50 (Rac1 Q61L): 0.046 µM
- EC50 (Cdc42): 2.2 ± 3.7 µM

Structure (SMILES): COC(=O)c1c(N)sc2c1CC(C)(C)OC2 [CID 974814]
- EC50 (H-Ras): > 1000 µM
- EC50 (Cdc42 Q61L): > 1000 µM
- EC50 (Rab7): > 1000 µM
- EC50 (H-Ras G12V): > 1000 µM
- EC50 (Cdc42): > 1000 µM

Structure (SMILES): COc1ccc(C(=O)NC(=S)Nc2sc3c(c2C(=O)O)CC(C)(C)OC3)cc1 [Compound 8]
- EC50 (H-Ras): 0.14 ± 0.09 µM
- EC50 (Cdc42 Q61L): 0.23 ± 0.039 µM
- EC50 (RhoA): 0.15 ± 0.06 µM
- EC50 (Rab7): 0.14 ± 0.07 µM
- EC50 (H-Ras G12V): 0.17 ± 0.1 µM
- EC50 (Rac1): 0.13 ± 0.06 µM
- EC50 (Rac1 Q61L): 0.15 ± 0.09 µM
- EC50 (Cdc42): 1.2 ± 1 µM

Structure (SMILES): CC(C)(C)C1Cc2c(sc(NC(=S)NC(=O)c3ccccc3)c2C(=O)O)CO1 (stereo not shown) [CID 53377399]
- EC50 (H-Ras): 0.14 µM
- EC50 (Cdc42 Q61L): 0.94 µM
- EC50 (RhoA): 0.2 µM
- EC50 (Rab7): 0.47 µM
- EC50 (H-Ras G12V): 0.13 µM
- EC50 (Rac1): 0.14 µM
- EC50 (Rac1 Q61L): 0.15 µM
- EC50 (Cdc42): 1.57 µM

Structure (SMILES): CC1(C)Cc2c(sc(NC(=S)NC(=O)c3ccc(Br)cc3)c2C(=O)O)CO1 [Compound 12]
- EC50 (H-Ras): 0.33 ± 0.24 µM
- EC50 (Cdc42 Q61L): 10.9 ± 18.4 µM
- EC50 (RhoA): 0.32 ± 0.13 µM
- EC50 (Rab7): 0.3 ± 0.18 µM
- EC50 (H-Ras G12V): 0.32 ± 0.22 µM
- EC50 (Rac1): 0.26 ± 0.11 µM
- EC50 (Rac1 Q61L): 0.28 ± 0.15 µM
- EC50 (Cdc42): 25.9 ± 44.1 µM

Structure (SMILES): O=C(NC(=S)Nc1sc2c(c1C(=O)O)CC1(CCCC1)OC2)c1ccccc1 [CID 53377403]
- EC50 (H-Ras): 0.03 µM
- EC50 (RhoA): 0.1 µM
- EC50 (Rab7): 0.04 µM
- EC50 (H-Ras G12V): 0.03 µM
- EC50 (Rac1): 0.06 µM
- EC50 (Rac1 Q61L): 0.08 µM
